Reference: patent US20070117818A1, “Pyrimidinone compounds useful as kinase inhibitors” (priority 2004, published 2007)

target: T1, hYAK3 (Homo sapiens, UniProt O43781); test: YAK3 Scintillation Proximity Assay using Ser164 of myelin basic protein as phosphoacceptor (kinase assay of purified hYAK3); format: biochemical; conditions: purified GST-hYak3-His6 (aa 124-526), 0.001 mM ATP, 4 μM Ser164 peptide, 2 hours at room temperature; pIC50 = −log10(IC50)
T1 construct: made in house; host or cells: baculovirus expression system in Sf9 cells
T1 sequence (O43781 124-526): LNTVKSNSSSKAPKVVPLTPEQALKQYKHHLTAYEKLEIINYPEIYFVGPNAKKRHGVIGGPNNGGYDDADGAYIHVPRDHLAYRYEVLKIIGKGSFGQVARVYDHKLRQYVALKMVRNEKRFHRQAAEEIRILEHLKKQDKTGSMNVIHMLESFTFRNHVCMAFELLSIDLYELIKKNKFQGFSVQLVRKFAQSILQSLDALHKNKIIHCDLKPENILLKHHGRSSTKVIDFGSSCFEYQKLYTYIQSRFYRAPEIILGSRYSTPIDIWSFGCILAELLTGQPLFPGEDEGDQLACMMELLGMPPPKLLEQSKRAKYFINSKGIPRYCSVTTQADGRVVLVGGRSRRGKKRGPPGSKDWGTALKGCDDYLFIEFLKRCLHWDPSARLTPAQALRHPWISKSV
Protocol: Substrate phosphorylation assays were carried out as follows:
YAK3 Scintillation Proximity Assays Using Ser164 of Myelin Basic Protein as the phosphoacceptor
The source of Ser164 substrate oeptide The biotinylated Ser164, S164A peptide (Biotinyl-LGGRDSRAGS*PMARR-OH), sequence derived from the C-terminus of bovine myelin basic protein (MBP) with Ser162 substituted as Ala162, was purchased from California Peptide Research Inc. (Napa, Calif.), and its purity was determined by HPLC. Phosphorylation occurs at position 164 (marked S* above). The calculated molecular mass of the peptide was 2166 dalton. Solid sample was dissolved at 10 mM in DMSO, aliquoted, and stored at −20° C. until use.
hYAK3: Glutathione-S-Transferase (GST)-hYak3-His6 containing amino acid residues 124-526 of human YAK3 (aa 124-526 of SEQ ID NO 2. in U.S. Pat. No. 6,323,318) was purified from baculovirus expression system in Sf9 cells using Glutathione Sepharose 4B column chromatography followed by Ni-NTA-Agarose column chromatography. Purity greater than 65% typically was achieved. Samples, in 50 mM Tris, 150 mM NaCl, 10% glycerol, 0.1% Triton, 250 mM imidazole, 10 mM β-mercapto ethanol, pH 8.0. were stored at −80° C. until use.
Kinase assay of purified hYAK3: Assays were performed in 96 well (Costar, Catalog No. 3789) or 384 well plates (Costar, Catalog No. 3705). Reaction (in 20, 25, or 40 μl volume) mix contained in final concentrations 25 mM Hepes buffer, pH 7.4; 10 mM MgCl2; 10 mM β-mercapto ethanol; 0.0025% Tween-20; 0.001 mMATP, 0.1 μCi of [γ-^33P]ATP; purified hYAK3 (7-14 ng/assay; 4 nM final); and 4 μM Ser164 peptide. Compounds, titrated in DMSO, were evaluated at concentrations ranging from 50 μM to 0.5 nM. […] Reactions were incubated for 2 hours at room temperature and were stopped by a 75 ul addition of 0.19 μg Streptavidin Scintillation Proximity beads (Amersham Pharmacia Biotech, Catalog No. RPNQ 0007) in PBS, pH 7.4, 10 mM EDTA, 0.1% Triton X-100, 1 mM ATP. Under the assay conditions defined above, the Km(apparent) for ATP was determined to be 7.2+-2.4 μM.

Row | IC50 [nM] | Structure (SMILES)
1 | 1.02 to 10 | NS(=O)(=O)c1cccc(Nc2nc(-c3ccc4nc(NC(=O)c5cccs5)[nH]c4c3)cc(=O)[nH]2)c1 [Ig, N-[5-(2-{[3-(Aminosulfonyl)phenyl]amino}-6-oxo-1,6-dihydro-4-pyrimidinyl)-1H-benzimidazol-2-yl]-2-thiophenecarboxamide]
2 | 10.2 to 100 | COCCNc1nc(-c2ccc3nc(NC(=O)c4cccs4)[nH]c3c2)cc(=O)[nH]1 [Il, N-[5-(2-{[2-(Methyloxy)ethyl]amino}-6-oxo-1,6-dihydro-4-pyrimidinyl)-1H-benzimidazol-2-yl]-2-thiophenecarboxamide]
3 | 102 to 1000 | O=C(Nc1nc2ccc(-c3cc(=O)[nH]c(NCCc4ccc(Cl)cc4Cl)n3)cc2[nH]1)c1cccs1 [Ip, N-[5-(2-{[2-(2,4-Dichlorophenyl)ethyl]amino}-6-oxo-1,6-dihydro-4-pyrimidinyl)-1H-benzimidazol-2-yl]-2-thiophenecarboxamide]
